Reference: the NIST ThermoML archive (doi:10.1007/s10765-007-0169-z)
± gives the expanded uncertainty stated by the source.

Tests used:
[1] = for surface tension liquid-gas: Drop volume; for mass density: 101.33 kPa, Liquid, Pycnometric method
[2] = xn = mol fraction of the nth substance listed; details: Drop volume

CC(C)CCl [1-chloro-2-methylpropane]
[1]
Details	mass density [kg/m3]	surface tension liquid-gas [mN/m]
298.15 K	871.13 ± 0.87	21.8 ± 0.28
313.15 K	–	19.18 ± 0.25

CC(C)CCl [1-chloro-2-methylpropane] + C1CCOC1
[2]
Details	surface tension liquid-gas [mN/m]
298.15 K, x2 = 0.0652	22.25 ± 0.28
298.15 K, x2 = 0.1201	22.54 ± 0.28
298.15 K, x2 = 0.2392	23.06 ± 0.28
298.15 K, x2 = 0.3613	23.53 ± 0.29
298.15 K, x2 = 0.4622	23.94 ± 0.29
298.15 K, x2 = 0.5682	24.44 ± 0.29
298.15 K, x2 = 0.6614	24.9 ± 0.29
298.15 K, x2 = 0.7586	25.42 ± 0.3
298.15 K, x2 = 0.8408	25.89 ± 0.3
298.15 K, x2 = 0.9257	26.45 ± 0.31
298.15 K, x2 = 0.9662	26.75 ± 0.31
313.15 K, x2 = 0.0619	19.77 ± 0.25
313.15 K, x2 = 0.1268	20.25 ± 0.26
313.15 K, x2 = 0.2531	21 ± 0.26
313.15 K, x2 = 0.359	21.53 ± 0.27
313.15 K, x2 = 0.4722	22.06 ± 0.27
313.15 K, x2 = 0.5669	22.51 ± 0.27
313.15 K, x2 = 0.659	22.97 ± 0.28
313.15 K, x2 = 0.7539	23.45 ± 0.28
313.15 K, x2 = 0.8338	23.88 ± 0.28
313.15 K, x2 = 0.9198	24.42 ± 0.29
313.15 K, x2 = 0.9751	24.83 ± 0.29

CC(C)CCl [1-chloro-2-methylpropane] + C1CCOCC1
[2]
Details	surface tension liquid-gas [mN/m]
298.15 K, x2 = 0.0483	22.18 ± 0.28
298.15 K, x2 = 0.1067	22.55 ± 0.28
298.15 K, x2 = 0.2075	23.09 ± 0.29
298.15 K, x2 = 0.32	23.63 ± 0.29
298.15 K, x2 = 0.4148	24.07 ± 0.3
298.15 K, x2 = 0.519	24.58 ± 0.3
298.15 K, x2 = 0.6219	25.11 ± 0.31
298.15 K, x2 = 0.7194	25.65 ± 0.32
298.15 K, x2 = 0.8079	26.15 ± 0.32
298.15 K, x2 = 0.9077	26.72 ± 0.33
298.15 K, x2 = 0.9602	27.04 ± 0.33
313.15 K, x2 = 0.0377	19.55 ± 0.25
313.15 K, x2 = 0.1032	20.11 ± 0.26
313.15 K, x2 = 0.2167	20.92 ± 0.27
313.15 K, x2 = 0.3226	21.57 ± 0.27
313.15 K, x2 = 0.4213	22.13 ± 0.28
313.15 K, x2 = 0.5302	22.74 ± 0.29
313.15 K, x2 = 0.6241	23.27 ± 0.29
313.15 K, x2 = 0.7134	23.78 ± 0.3
313.15 K, x2 = 0.8148	24.37 ± 0.3
313.15 K, x2 = 0.9051	24.89 ± 0.31
313.15 K, x2 = 0.966	25.22 ± 0.31

CCCCCl [1-chlorobutane]
[1]
Details	mass density [kg/m3]	surface tension liquid-gas [mN/m]
298.15 K	880.69 ± 0.88	23.29 ± 0.29
313.15 K	–	21.58 ± 0.27

CCCCCl [1-chlorobutane] + C1CCOC1
[2]
Details	surface tension liquid-gas [mN/m]
298.15 K, x2 = 0.0526	23.45 ± 0.29
298.15 K, x2 = 0.1121	23.62 ± 0.29
298.15 K, x2 = 0.2436	23.98 ± 0.29
298.15 K, x2 = 0.3549	24.29 ± 0.29
298.15 K, x2 = 0.4671	24.65 ± 0.3
298.15 K, x2 = 0.5624	25 ± 0.3
298.15 K, x2 = 0.6678	25.41 ± 0.3
298.15 K, x2 = 0.7575	25.79 ± 0.3
298.15 K, x2 = 0.84	26.16 ± 0.31
298.15 K, x2 = 0.9224	26.58 ± 0.31
298.15 K, x2 = 0.9739	26.87 ± 0.31
313.15 K, x2 = 0.0654	21.78 ± 0.27
313.15 K, x2 = 0.1272	21.95 ± 0.27
313.15 K, x2 = 0.25	22.28 ± 0.27
313.15 K, x2 = 0.3654	22.59 ± 0.28
313.15 K, x2 = 0.4658	22.89 ± 0.28
313.15 K, x2 = 0.5586	23.2 ± 0.28
313.15 K, x2 = 0.6569	23.56 ± 0.28
313.15 K, x2 = 0.7489	23.92 ± 0.28
313.15 K, x2 = 0.8401	24.3 ± 0.29
313.15 K, x2 = 0.9272	24.69 ± 0.29
313.15 K, x2 = 0.9663	24.88 ± 0.29

CCCCCl [1-chlorobutane] + C1CCOCC1
[2]
Details	surface tension liquid-gas [mN/m]
298.15 K, x2 = 0.0421	23.43 ± 0.29
298.15 K, x2 = 0.1082	23.65 ± 0.29
298.15 K, x2 = 0.2121	24.02 ± 0.3
298.15 K, x2 = 0.3174	24.41 ± 0.3
298.15 K, x2 = 0.4245	24.82 ± 0.31
298.15 K, x2 = 0.5222	25.21 ± 0.31
298.15 K, x2 = 0.6243	25.63 ± 0.32
298.15 K, x2 = 0.7209	26.04 ± 0.32
298.15 K, x2 = 0.8105	26.43 ± 0.33
298.15 K, x2 = 0.9103	26.88 ± 0.33
298.15 K, x2 = 0.9655	27.13 ± 0.33
313.15 K, x2 = 0.0319	21.69 ± 0.27
313.15 K, x2 = 0.1092	21.95 ± 0.28
313.15 K, x2 = 0.208	22.29 ± 0.28
313.15 K, x2 = 0.3137	22.66 ± 0.28
313.15 K, x2 = 0.4209	23.04 ± 0.29
313.15 K, x2 = 0.5149	23.39 ± 0.29
313.15 K, x2 = 0.6199	23.8 ± 0.3
313.15 K, x2 = 0.717	24.19 ± 0.3
313.15 K, x2 = 0.8126	24.59 ± 0.31
313.15 K, x2 = 0.9067	24.99 ± 0.31
313.15 K, x2 = 0.965	25.24 ± 0.31

CC(C)(C)Cl [2-chloro-2-methylpropane]
[1]
Details	mass density [kg/m3]	surface tension liquid-gas [mN/m]
298.15 K	836.45 ± 0.83	18.9 ± 0.24
313.15 K	–	16.98 ± 0.22
